Measured values reported in patent US20230000813A1, “COMPOUND FOR THE TREATMENT OF BOVINE OR SWINE RESPIRATORY DISEASE” (Intervet Inc., priority 2016, published 2023).
Values after ≈ are worked out from the molar mass of the structure shown.

Tests used:
Experiment in all cases: MIC, broth-microdilution (CLSI VET01-A4)
Format in all cases: cell-based
[1] = system: Mannheimia haemolytica MH 12587 (1071, BRD field isolate, macrolide-resistance: erm+, E+); conditions: Mannheimia haemolytica MH 12587, macrolide-resistant
In short: (§1)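 Doubling dilution series in microdilution trays; endpoint = lowest conc. without visible growth (no turbidity, unaided eye); interpretation per CLSI VET01-S3.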

[2] = system: Pasteurella multocida PM 6391 (ATCC 43137, reference strain); conditions: Pasteurella multocida PM 6391; for MIC: read-out: MIC PM 6391
In short: as §1

[3] = system: Mannheimia haemolytica MH 6374 (ATCC 33396, reference strain); conditions: Mannheimia haemolytica MH 6374; for MIC: read-out: MIC MH 6374
In short: as §1

[4] = system: Mannheimia haemolytica MH 6357 (M7/2, reference strain, cattle infection strain); conditions: Mannheimia haemolytica MH 6357; for MIC: read-out: MIC MH 6357
In short: as §1

[5] = system: Pasteurella multocida PM 12080 (IV102277-0093, BRD field isolate); conditions: Pasteurella multocida PM 12080; for MIC: read-out: MIC PM 12080
In short: as §1

[6] = system: Pasteurella multocida PM 10775 (080130003051, BRD field isolate); conditions: Pasteurella multocida PM 10775; for MIC: read-out: MIC PM 10775
In short: as §1

[7] = system: Mannheimia haemolytica MH 10720 (154, BRD field isolate); conditions: Mannheimia haemolytica MH 10720; for MIC: read-out: MIC MH 10720
In short: as §1

[8] = system: Pasteurella multocida PM 6267 (P 2225 (L386), reference strain, mouse infection strain); conditions: Pasteurella multocida PM 6267; for MIC: read-out: MIC PM 6267
In short: as §1

[9] = system: Mannheimia haemolytica MH 13093 (XB0472-6014.1, BRD field isolate)
In short: (§2)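 MIC read by eye as lowest compound concentration without visible growth (no turbidity), interpreted per CLSI VET01-S3. Doubling-dilution broth-microdilution trays, run according to CLSI VET01-A4.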

[10] = system: Mannheimia haemolytica MH 13065 (XB0446-6003.9, BRD field isolate)
In short: as §2

| SMILES | MIC MH 12587 [1] [µM] | MIC PM 6391 [2] | MIC [3] [µM] | MIC [4] [µM] | MIC PM 12080 [5] | MIC PM 10775 [6] | MIC MH 10720 [7] | MIC PM 6267 [8] | MIC [9] [µM] | MIC [10] [µM] | MIC [6] [µM] | MIC [7] [µM] | MIC [2] [µM] | MIC [5] [µM] | MIC [8] [µM] | MIC MH 6374 [3] | MIC MH 6357 [4] |
| --- | --- | --- | --- | --- | --- | --- | --- | --- | --- | --- | --- | --- | --- | --- | --- | --- | --- |
| CC(C)([C@H](NC(=O)c1ccc(C#Cc2ccc(CNCc3nccs3)s2)cc1)C(=O)NO)S(C)(=O)=O [Compound 745] | 0.4 (≈ 0.219 µg/mL) | <=0.1 μM | 0.2 (≈ 0.109 µg/mL) | 0.4 (≈ 0.219 µg/mL) | <=0.1 μM | <=0.1 μM | <=0.1 μM | <=0.1 μM | 0.4 (≈ 0.219 µg/mL) | 0.4 (≈ 0.219 µg/mL) | – | – | – | – | – | – | – |
| CC(C)(O)C(NC(=O)c1ccc(C#Cc2ccc(CNCc3cccnc3)cc2)cc1)C(=O)NO (stereo not shown) [Compound 574] | 1.6 (≈ 0.756 µg/mL) | <=0.1 μM | 0.4 (≈ 0.189 µg/mL) | 0.8 (≈ 0.378 µg/mL) | <=0.1 μM | <=0.1 μM | <=0.1 μM | <=0.1 μM | 0.8 (≈ 0.378 µg/mL) | 0.4 (≈ 0.189 µg/mL) | – | – | – | – | – | – | – |
| CC(C)(C(NC(=O)c1ccc(C#Cc2ccc(CNCc3ccncc3)cc2)cc1)C(=O)NO)[N+](=O)[O-] (racemic) [Compound 654] | 0.8 (≈ 0.401 µg/mL) | <=0.1 μM | 0.4 (≈ 0.201 µg/mL) | 0.4 (≈ 0.201 µg/mL) | <=0.1 μM | <=0.1 μM | <=0.1 μM | <=0.1 μM | 0.4 (≈ 0.201 µg/mL) | 0.4 (≈ 0.201 µg/mL) | – | – | – | – | – | – | – |
| C[C@@H](O)[C@H](NC(=O)c1ccc(C#Cc2ccc(CNCc3ccccc3)s2)cc1)C(=O)NO [Compound 195] | 0.8 (≈ 0.371 µg/mL) | <=0.1 μM | 0.2 (≈ 0.0927 µg/mL) | 0.2 (≈ 0.0927 µg/mL) | <=0.1 μM | <=0.1 μM | <=0.1 μM | <=0.1 μM | 0.4 (≈ 0.185 µg/mL) | 0.4 (≈ 0.185 µg/mL) | – | – | – | – | – | – | – |
| CC(C)(N)C(NC(=O)c1ccc(C#Cc2ccc(CNCc3nccs3)s2)cc1)C(=O)NO (stereo not shown) [Compound 564] | 0.8 (≈ 0.387 µg/mL) | <=0.1 μM | 0.4 (≈ 0.193 µg/mL) | 0.8 (≈ 0.387 µg/mL) | <=0.1 μM | <=0.1 μM | <=0.1 μM | <=0.1 μM | 0.8 (≈ 0.387 µg/mL) | 0.8 (≈ 0.387 µg/mL) | – | – | – | – | – | – | – |
| CC(C)(N)C(NC(=O)c1ccc(C#Cc2ccc(CNCc3ccnc(Cl)c3)cc2)cc1)C(=O)NO (racemic) [Compound 313] | 1.6 (≈ 0.81 µg/mL) | <=0.1 μM | 0.8 (≈ 0.405 µg/mL) | 0.8 (≈ 0.405 µg/mL) | <=0.1 μM | – | – | <=0.1 μM | 1.6 (≈ 0.81 µg/mL) | 1.6 (≈ 0.81 µg/mL) | 0.2 (≈ 0.101 µg/mL) | 0.4 (≈ 0.202 µg/mL) | – | – | – | – | – |
| CSC(C)(C)[C@H](NC(=O)c1ccc(C#Cc2ccc(CNCc3ccccn3)cc2)cc1)C(=O)NO [Compound 595] | 1.6 (≈ 0.804 µg/mL) | – | 1.6 (≈ 0.804 µg/mL) | 0.8 (≈ 0.402 µg/mL) | – | <=0.1 μM | – | – | 0.8 (≈ 0.402 µg/mL) | 0.8 (≈ 0.402 µg/mL) | – | 0.2 (≈ 0.101 µg/mL) | 0.8 (≈ 0.402 µg/mL) | 0.4 (≈ 0.201 µg/mL) | 0.2 (≈ 0.101 µg/mL) | – | – |
| CC(C)(C(NC(=O)c1ccc(C#Cc2ccc(CNCc3ccco3)cc2)cc1)C(=O)NO)S(C)(=O)=O (stereo not shown) [C. 616] | 0.8 (≈ 0.419 µg/mL) | <=0.1 μM | 0.2 (≈ 0.105 µg/mL) | 0.8 (≈ 0.419 µg/mL) | <=0.1 μM | <=0.1 μM | <=0.1 μM | <=0.1 μM | 0.4 (≈ 0.209 µg/mL) | 0.2 (≈ 0.105 µg/mL) | – | – | – | – | – | – | – |
| CSC(C)(C)[C@H](NC(=O)c1ccc(C#Cc2ccc(CNCc3ccncc3)s2)cc1)C(=O)NO [Compound 740] | 1.6 (≈ 0.814 µg/mL) | – | 0.8 (≈ 0.407 µg/mL) | 0.8 (≈ 0.407 µg/mL) | <=0.1 μM | <=0.1 μM | – | – | 0.8 (≈ 0.407 µg/mL) | 0.8 (≈ 0.407 µg/mL) | – | 0.2 (≈ 0.102 µg/mL) | 0.4 (≈ 0.203 µg/mL) | – | 0.4 (≈ 0.203 µg/mL) | – | – |
| CCC(C)C(NC(=O)c1ccc(C#Cc2ccc(CNCc3cccs3)cc2)cc1)C(=O)NO (stereo not shown) [Compound 302] | 1.6 (≈ 0.761 µg/mL) | – | 1.6 (≈ 0.761 µg/mL) | 0.4 (≈ 0.19 µg/mL) | – | <=0.1 μM | – | – | 0.8 (≈ 0.38 µg/mL) | 0.8 (≈ 0.38 µg/mL) | – | 0.2 (≈ 0.0951 µg/mL) | 0.8 (≈ 0.38 µg/mL) | 0.2 (≈ 0.0951 µg/mL) | 0.2 (≈ 0.0951 µg/mL) | – | – |
| C[C@@H](O)[C@H](NC(=O)c1ccc(C#Cc2ccc(CNCc3cccs3)cc2)cc1)C(=O)NO [Compound 260] | 0.4 (≈ 0.185 µg/mL) | <=0.1 μM | – | – | <=0.1 μM | <=0.1 μM | <=0.1 μM | <=0.1 μM | 0.4 (≈ 0.185 µg/mL) | 0.4 (≈ 0.185 µg/mL) | – | – | – | – | – | <=0.1 μM | <=0.1 μM |
| CC(C)(N)C(NC(=O)c1ccc(C#Cc2ccc(CN3CC=CC3)s2)cc1)C(=O)NO (racemic) [Compound 649] | 0.8 (≈ 0.351 µg/mL) | – | 0.4 (≈ 0.175 µg/mL) | 0.8 (≈ 0.351 µg/mL) | – | <=0.1 μM | <=0.1 μM | <=0.1 μM | 0.8 (≈ 0.351 µg/mL) | 0.4 (≈ 0.175 µg/mL) | – | – | 0.2 (≈ 0.0877 µg/mL) | 0.2 (≈ 0.0877 µg/mL) | – | – | – |
| CC(C)(O)[C@H](NC(=O)c1ccc(C#Cc2ccc(CNCc3nccs3)s2)cc1)C(=O)NO [Compound 735] | 0.4 (≈ 0.194 µg/mL) | <=0.1 μM | 0.2 (≈ 0.0969 µg/mL) | 0.4 (≈ 0.194 µg/mL) | <=0.1 μM | – | <=0.1 μM | <=0.1 μM | 0.4 (≈ 0.194 µg/mL) | 0.2 (≈ 0.0969 µg/mL) | 0.2 (≈ 0.0969 µg/mL) | – | – | – | – | – | – |
